≈ marks a conversion by molar mass, not a printed value. Where a SMILES comes first, the peptide text is derived from it. [ ]: non-standard residue; d: D form. The star is where a group is joined. ξ: configuration not given here. Octanoyl(7-Me) = CC(C)CCCCCC(=O)*; Hexanoyl(4ξ-Me) = CCC(C)CCC(=O)*; dOrn = NCCC[C@@H](N)C(=O)O; Orn = NCCC[C@H](N)C(=O)O A value given as a limit tells only on which side of the number the result lay.

Results on 4 compounds are retold here after PMC10150354, “Linearization of the Brevicidine and Laterocidine Lipopeptides Yields Analogues That Retain Full Antibacterial Activity” (Journal of Medicinal Chemistry, 2023).

In one experiment the test system is K. pneumoniae ATCC 13883. In kind it is cell-based, Klebsiella pneumoniae. The following applies: microbroth dilution per CLSI, MHB, 18 h at 37 °C, visual inspection, three technical replicates. Put shortly:
(§1)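 MIC taken as the lowest concentration with no visible growth after 18 h, 37 °C, shaking, three technical replicates. Peptides were serially diluted in MHB and received cells from TSB cultures at OD600 ~0.5, diluted to 2 × 10^5 CFU/mL (kanamycin selection for the mcr-1 E. coli), following CLSI guidelines.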
For orientation: In broth dilution the organism is exposed to a series of concentrations in liquid medium.

A further experiment deals with E. coli (MCR-1). In kind it is cell-based, Escherichia coli. The following applies: microbroth dilution per CLSI, MHB, 18 h at 37 °C, visual inspection, three technical replicates, E. coli 25922 carrying mcr-1. Put shortly: as §1
Another experiment concerns E. coli ATCC 25922. In kind it is cell-based, Escherichia coli. The following applies: for Antibacterial activity (MIC) E. coli ATCC 25922: microbroth dilution per CLSI, MHB, 18 h at 37 °C, visual inspection, three technical replicates; for MIC (µg/mL) against E. coli (ATCC 25922): (Supplement 2). Put shortly: as §1
The subject of the next experiment is S. aureus USA300. In kind it is cell-based, Staphylococcus aureus. The following applies: microbroth dilution per CLSI, MHB, 18 h at 37 °C, visual inspection, three technical replicates. Put shortly:
as §1

Another experiment concerns P. aeruginosa PAO1. In kind it is cell-based, Pseudomonas aeruginosa. The following applies: microbroth dilution per CLSI, MHB, 18 h at 37 °C, visual inspection, three technical replicates. The essentials: as §1
The subject of a further experiment is A. baumannii ATCC 17961. The class given is cell-based, Acinetobacter baumannii. The following applies: microbroth dilution per CLSI, MHB, 18 h at 37 °C, visual inspection, three technical replicates. The essentials: as §1

As for `CC(C)CCCCCC(=O)N[C@H](CO)C(=O)N[C@H](Cc1ccc(O)cc1)C(=O)N[C@H](Cc1c[nH]c2ccccc12)C(=O)N[C@H](CCCN)C(=O)N[C@@H](CCCN)C(=O)NCC(=O)N[C@H](CCCN)C(=O)N[C@@H](Cc1c[nH]c2ccccc12)C(=O)N[C@H](C(=O)N[C@@H](C)C(=O)N[C@@H](CC(N)=O)C(=O)NCC(=O)NCC(N)=O)[C@@H](C)O` [LL(Ala10)-NH2 (38)] ({Octanoyl(7-Me)}-[dS][dY][dW][dOrn][Orn]G[dOrn]WTANGG-NH2), the “Antibacterial activity (MIC) K. pneumoniae ATCC 13883” value in the experiment with K. pneumoniae ATCC 13883 was more than 32 µg/mL. Also, the “Antibacterial activity (MIC) E. coli (MCR-1)” value in the experiment with E. coli (MCR-1) was more than 32 µg/mL. For the same compound, the “Antibacterial activity (MIC) E. coli ATCC 25922” value in the experiment on E. coli ATCC 25922 is more than 32 µg/mL. Moreover, the “Antibacterial activity (MIC) S. aureus USA300” value with S. aureus USA300 was more than 32 µg/mL. Further, the “Antibacterial activity (MIC) P. aeruginosa PAO1” value with P. aeruginosa PAO1 worked out at 16 µg/mL. For the same compound, the “Antibacterial activity (MIC) A. baumannii ATCC 17961” value in the experiment on A. baumannii ATCC 17961 was more than 32 µg/mL.
In the case of `CC(C)CCCCCC(=O)N[C@H](CO)C(=O)N[C@H](Cc1ccc(O)cc1)C(=O)N[C@H](Cc1c[nH]c2ccccc12)C(=O)N[C@H](CCCN)C(=O)N[C@@H](CCCN)C(=O)NCC(=O)N[C@H](CCCN)C(=O)N[C@@H](Cc1c[nH]c2ccccc12)C(N)=O` [Δ9–13LL-NH2 (16)] ({Octanoyl(7-Me)}-[dS][dY][dW][dOrn][Orn]G[dOrn]W-NH2), the “Antibacterial activity (MIC) K. pneumoniae ATCC 13883” value with K. pneumoniae ATCC 13883 is more than 32 µg/mL. Also, the “Antibacterial activity (MIC) E. coli (MCR-1)” value with E. coli (MCR-1) is more than 32 µg/mL. In addition, the “Antibacterial activity (MIC) E. coli ATCC 25922” value in the experiment with E. coli ATCC 25922 is more than 32 µg/mL. Moreover, in the experiment with S. aureus USA300, the “Antibacterial activity (MIC) S. aureus USA300” value was more than 32 µg/mL. Further, the “Antibacterial activity (MIC) P. aeruginosa PAO1” value with P. aeruginosa PAO1 is more than 32 µg/mL. Further, the “Antibacterial activity (MIC) A. baumannii ATCC 17961” value in the experiment with A. baumannii ATCC 17961 stood at 32 µg/mL.
Take `CC[C@H](C)[C@H](NC(=O)[C@H](CC(C)C)NC(=O)[C@H](Cc1c[nH]c2ccccc12)NC(=O)[C@@H](CCCN)NC(=O)CNC(=O)[C@H](CCCN)NC(=O)[C@@H](CCCN)NC(=O)[C@@H](Cc1c[nH]c2ccccc12)NC(=O)[C@@H](Cc1ccc(O)cc1)NC(=O)[C@@H](CO)NC(=O)CCCCCC(C)C)C(=O)N[C@@H](CC(N)=O)C(=O)NCC(=O)NCC(N)=O` [LL(Leu9)-NH2 (42)] ({Octanoyl(7-Me)}-[dS][dY][dW][dOrn][Orn]G[dOrn]WLINGG-NH2): the “Antibacterial activity (MIC) K. pneumoniae ATCC 13883” value with K. pneumoniae ATCC 13883 came to 8 µg/mL. For the same compound, the “Antibacterial activity (MIC) E. coli (MCR-1)” value in the experiment with E. coli (MCR-1) stood at 8 µg/mL. In the experiment on E. coli ATCC 25922, the “MIC (µg/mL) against E. coli (ATCC 25922)” value was 4 µg/mL (≈ 2.45 µM) and the “Antibacterial activity (MIC) E. coli ATCC 25922” value was found to be 4 µg/mL. For the same compound, the “Antibacterial activity (MIC) S. aureus USA300” value in the experiment with S. aureus USA300 is more than 32 µg/mL. The “Antibacterial activity (MIC) P. aeruginosa PAO1” value in the experiment with P. aeruginosa PAO1 came to 8 µg/mL. In addition, in the experiment on A. baumannii ATCC 17961, the “Antibacterial activity (MIC) A. baumannii ATCC 17961” value amounted to 4 µg/mL.
With `CCC(C)CCC(=O)N[C@H](CC(N)=O)C(=O)N[C@H](Cc1ccc(O)cc1)C(=O)N[C@H](Cc1c[nH]c2ccccc12)C(=O)N[C@H](CCCN)C(=O)N[C@@H](CCCN)C(=O)NCC(=O)N[C@H](CCCN)C(=O)N[C@@H](Cc1c[nH]c2ccccc12)C(=O)N[C@@H](CCC(N)=O)C(=O)N[C@H](C(=O)NCC(N)=O)[C@@H](C)CC` (some centres unmarked) [Δ12LB (Gln9)-NH2 (59)] ({Hexanoyl(4ξ-Me)}-[dN][dY][dW][dOrn][Orn]G[dOrn]WQIG-NH2), the “Antibacterial activity (MIC) K. pneumoniae ATCC 13883” value in the experiment on K. pneumoniae ATCC 13883 turned out to be 16 µg/mL. Besides, the “Antibacterial activity (MIC) E. coli (MCR-1)” value in the experiment with E. coli (MCR-1) was found to be 8 µg/mL. Also, in the experiment on E. coli ATCC 25922, the “MIC (µg/mL) against E. coli (ATCC 25922)” value is 8 µg/mL (≈ 5.42 µM) and the “Antibacterial activity (MIC) E. coli ATCC 25922” value amounted to 8 µg/mL. Moreover, in the experiment on S. aureus USA300, the “Antibacterial activity (MIC) S. aureus USA300” value is more than 32 µg/mL. Further, in the experiment on P. aeruginosa PAO1, the “Antibacterial activity (MIC) P. aeruginosa PAO1” value turned out to be 2 µg/mL. Moreover, the “Antibacterial activity (MIC) A. baumannii ATCC 17961” value in the experiment on A. baumannii ATCC 17961 amounted to 16 µg/mL.
